The values below come from patent EP4756027A1, “DOUBLE-STRANDED RIBONUCLEIC ACID TARGETING PD-L1” (Chia Tai Tianqing Pharmaceutical Group Co., Ltd., priority 2023, dated 2025).

For series [1], the system named is PD-L1 mRNA. Nature of the series: Activity evaluation A in human PD-L1 model mice (liver PD-L1 mRNA, qPCR). As to conditions: liver tissue, 10 mg/kg subcutaneous single dose, 14 days after treatment, vs PBS group. The series is classed as in vivo. The method, then:
(§1) Male human PD-L1 mice (purchased from Shanghai Model Organisms Center, Inc.) aged 6-8 weeks were randomized by weight, with 3 mice in each group. The groups were designated as a PBS group and various sample groups (dsRNA ligand conjugate of the present application).
(§2) Each sample group (dsRNA ligand conjugate of the present application) received a 1 mg/mL solution prepared in 1× PBS (pH 7.4).
Each mouse in the PBS group was subcutaneously injected with 10 mL/kg body weight of 1× PBS (pH 7.4), and each mouse in the sample groups (dsRNA ligand conjugate of the present application) was subcutaneously injected with the corresponding solution prepared as described above. The administration volume for each animal was 10 mL/kg body weight, and the administration dose was 10 mg/kg body weight. The day of the first dose was designated as day 0. All mice were sacrificed 14 days after the treatment, and the liver was collected and preserved in 1.5 mL sterile EP tubes containing 1 mL of animal tissue RNA stabilizing solution (Shanghai Beyotime Biotech Inc., Cat. No. R0118). After being preserved in a refrigerator at 4 °C for 24 h, the liver was transferred to -80 °C for storage. […]
For each reverse transcription reaction system, the cDNA-containing solution described above was taken as the qPCR template, and 20 µL of the qPCR reaction system was prepared using the reagent provided by the ChamQ SYBRqPCR Master Mix kit (Vazyme Biotech Co., Ltd., Cat. No. Q311). […] The qPCR reaction system was placed on a LightCycler 480 fluorescent quantitative PCR system and amplified using the three-step method. […] The real-time fluorescent quantitative PCR system separately acquired the dissolution curves of the target gene PD-L1 and the internal reference gene GAPDH in the PCR amplification products to give the Ct values of the target gene PD-L1 and the internal reference gene GAPDH. […]

In series [2] the test system is PD-L1 mRNA. Nature of the series: Activity evaluation B in human PD-L1 model mice (liver PD-L1 mRNA, qPCR). The series is classed as in vivo. The settings on record: liver tissue, 10 mg/kg subcutaneous; for PD-L1 expression inhibition rate (%), Day 14 after treatment, Avg: day 14, vs PBS group; for PD-L1 expression inhibition rate (%), Day 28 after treatment, Avg: day 28, vs PBS group. The method, then: as §1, §2
Each mouse in the PBS group was subcutaneously injected with 10 mL/kg body weight of 1× PBS (pH 7.4), and each mouse in the sample groups (dsRNA ligand conjugate of the present application) was subcutaneously injected with the corresponding solution prepared as described above. The administration volume for each animal was 10 mL/kg body weight, and the administration dose was 10 mg/kg body weight. The day of the first dose was designated as day 0. The liver was collected on days 14 and 28 after the treatment and preserved in 1.5 mL sterile EP tubes containing 1 mL of animal tissue RNA stabilizing solution (Shanghai Beyotime Biotech Inc., Cat. No. R0118). After being preserved in a refrigerator at 4 °C for 24 h, the liver was transferred to -80 °C for storage. Then, the liver tissue of each mouse was homogenized using a tissue homogenizer, and the total RNA of the liver tissue of each mouse was separately extracted using the TaKaRa MiniBEST Universal RNA Extraction Kit (TAKARA, Cat. No. 9767) according to the procedures for total RNA extraction in the instructions.
The procedures of reverse transcription to synthesize cDNA and fluorescence quantitative PCR, the primers, and the calculation of inhibition rate are shown in Experimental Example 3.
In general terms: Quantitative PCR measures a nucleic acid by following its amplification.

Regarding “M01L01: dsRNA ligand conjugate; modified sense SEQ ID NO 31 with L01 ligand (GalNAc), antisense SEQ ID NO 32 (sense AGCAATATGACAATTGAATGA; antisense TCATTCAATTGTCATATTGCTAC; 2'-O-methyl and 2'-fluoro modified, full pattern not given here, GalNAc L01 on sense)”, the “PD-L1 expression inhibition rate (%), Avg” value with PD-L1 mRNA [1] came out at 59.3%.
Still for that read-out and setting: the figure for “M02L01: dsRNA ligand conjugate; modified sense SEQ ID NO 33 with L01 ligand (GalNAc), antisense SEQ ID NO 34 (sense ATTTACTGTCACGGTTCCCAA; antisense TTGGGAACCGTGACAGTAATAGC; 2'-O-methyl and 2'-fluoro modified, full pattern not given here, GalNAc L01 on sense)” is 67.1%.
Still for that read-out and setting: next, “M03L01: dsRNA ligand conjugate; modified sense SEQ ID NO 35 with L01 ligand (GalNAc), antisense SEQ ID NO 36 (sense CTATTTATTTTGAGTCTGT; antisense ACAGACTCAAAATAAATAGGA; 2'-O-methyl and 2'-fluoro modified, full pattern not given here, GalNAc L01 on sense)”: 78.2%.
On to “M07L01: dsRNA ligand conjugate; modified sense SEQ ID NO 43 with L01 ligand (GalNAc), antisense SEQ ID NO 44 (sense AATGAAAGGACTCACTTGGTA; antisense TACCAAGTGAGTCCTTTCATTTG; 2'-O-methyl and 2'-fluoro modified, full pattern not given here, GalNAc L01 on sense)”, for which the “PD-L1 expression inhibition rate (%), Day 14 after treatment, Avg” value with PD-L1 mRNA [2] is 49.0%.
With “M08L01: dsRNA ligand conjugate; modified sense SEQ ID NO 45 with L01 ligand (GalNAc), antisense SEQ ID NO 46 (sense GCTGCATGATCAGCTATGGTA; antisense TACCATAGCTGATCATGCAGCGG; 2'-O-methyl and 2'-fluoro modified, full pattern not given here, GalNAc L01 on sense)”, in the series on PD-L1 mRNA [2], the “PD-L1 expression inhibition rate (%), Day 14 after treatment, Avg” value was found to be 26.7%.
With “M10L01: dsRNA ligand conjugate; modified sense SEQ ID NO 49 with L01 ligand (GalNAc), antisense SEQ ID NO 50 (sense ATTGGTCATCCCAGAACTACA; antisense TGTAGTTCTGGGATGACCAATTC; 2'-O-methyl and 2'-fluoro modified, full pattern not given here, GalNAc L01 on sense)”, in the series with PD-L1 mRNA [2], the “PD-L1 expression inhibition rate (%), Day 14 after treatment, Avg” value was 64.6% and the “PD-L1 expression inhibition rate (%), Day 28 after treatment, Avg” value was determined as 47.0%.
Take “M11L01: dsRNA ligand conjugate; modified sense SEQ ID NO 51 with L01 ligand (GalNAc), antisense SEQ ID NO 52 (sense TATTTATTTTGAGTCTGTG; antisense CACAGACTCAAAATAAATAGG; 2'-O-methyl and 2'-fluoro modified, full pattern not given here, GalNAc L01 on sense)”: in the series on PD-L1 mRNA [2], the “PD-L1 expression inhibition rate (%), Day 14 after treatment, Avg” value was found to be 66.7% and the “PD-L1 expression inhibition rate (%), Day 28 after treatment, Avg” value came to 39.2%.
On to “M12L01: dsRNA ligand conjugate; modified sense SEQ ID NO 55 with L01 ligand (GalNAc), antisense SEQ ID NO 56 (sense ATTTACTGTCACGGTTCCCAA; antisense TTGGGAACCGTGACAGTAAATGC; 2'-O-methyl and 2'-fluoro modified, full pattern not given here, GalNAc L01 on sense)”, for which, in the series on PD-L1 mRNA [2], the “PD-L1 expression inhibition rate (%), Day 14 after treatment, Avg” value came to 78.6% and the “PD-L1 expression inhibition rate (%), Day 28 after treatment, Avg” value was 50%.
